Reference: patent US6015818A, “Quinoline derivatives as bradykinin agonists” (Fujisawa Pharmaceutical Co., Ltd., priority 1996, dated 2000)

How the values were obtained:
Bradykinin receptor = biological target: T1, Bradykinin receptor (Cavia porcellus, UniProt O70526); experiment: 3H-Bradykinin receptor binding (crude guinea pig ileum membrane); set-up: species or system guinea pigs; conditions: 3H-Bradykinin 0.06 nM, room temperature, 60 minutes, read-out: Inhibition of ^3 H-Bradykinin binding: IC50
T1 construct: The ileum was removed and homogenized in buffer; from tissue; host or cells: guinea pig (male Hartley strain) ileum, crude membrane suspension
T1 sequence (O70526 1-372): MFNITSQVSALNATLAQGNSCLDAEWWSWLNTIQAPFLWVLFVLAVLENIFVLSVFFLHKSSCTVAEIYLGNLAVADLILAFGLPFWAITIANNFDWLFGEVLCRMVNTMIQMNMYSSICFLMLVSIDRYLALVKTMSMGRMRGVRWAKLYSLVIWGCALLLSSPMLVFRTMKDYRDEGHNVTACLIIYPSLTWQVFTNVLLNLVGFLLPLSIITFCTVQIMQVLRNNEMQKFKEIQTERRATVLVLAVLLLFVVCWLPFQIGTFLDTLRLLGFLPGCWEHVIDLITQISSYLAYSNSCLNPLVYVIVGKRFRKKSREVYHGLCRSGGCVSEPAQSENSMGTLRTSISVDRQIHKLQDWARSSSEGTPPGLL
Protocol: (I) ^3 H-Bradykinin receptor binding
(a) Crude ileum membrane preparation
Male Hartly strain guinea pigs were sacrificed by decapitation. The ileum was removed and homogenized in buffer (50 mM 2-[[tris(hydroxymethyl)methyl]amino]-1-ethanesulfonic acid (TES), 1 mM 1,10-phenanthroline pH 6.8). The homogenate was centrifuged (1000×g,20 minutes) to remove tissue clumps and the supernatant was centrifuges (100,000×g, 60 minutes) to yield a pellet. The pellet was resuspended in buffer (50 mM TES, 1 mM 1,10-phenanthroline, 140 mg/l bacitracin, 1 mM dithiothreiol, 0.1% bovine serum albumin pH 6.8) and homogenized with a glass-teflon homogenizer to yield suspension which was referred to as crude membrane suspension. The obtained membrane suspension was stored at -80° C. until use.
(b) ^3 H-Bradykinin binding to the membrane
The frozen crude membrane suspension was thawed. In binding assays, ^3 H-Bradykinin (0.06 nM) and drug were incubated with 50 μl of the membrane suspension at room temperature for 60 minutes in a final volume of 250 μ1. Separation of receptor-bound from free ^3 H-Bradykinin is achieved by immediate filtration under vacuum and washed three times with 5 ml of ice-cold buffer (50 mM Tris-HCl pH 7.5). Non-specific binding was defined as binding in the presence of 0.1 μM Bradykinin. The radioactivity retained on rinsed filters was determined by a liquid-scintillation counter.

WI-38 PGE2 production = experiment: Prostaglandin E2 (PGE2) production in human fibroblasts (WI-38); assay type: cell-based; conditions: WI-38, 0.5 h, concentration: 1 × 10^-6 M, 30 minutes at 37° C., PGE2 by EIA, read-out: WI-38 PGE2 production increase ratio
Protocol: (II) Prostaglandin E2 (PGE2) production in human fibroblasts
The assay of PGE2 production was modified from the procedure described in The Journal of Biological Chemistry, 257, 8630-8633 (1982).
Human fibroblasts (WI-38, ATCC CCL75) were grown in Eagle's Minimum Essential Medium [E-MEM: ICN Biomedical Inc., Cat. No. 10-101-24 (47.6 g) with sodium bicarbonate (11.0 g), penicillin G potassium salt (0.5 g), streptomycin sulfate (0.5 g) in water (5000 ml) and 10% fetal bovine serum]. The cells were placed into the quiescent state after confluence was reached.
(b) Measurements of PGE2 production
WI-38 cells were seeded in 24-well plates at a density of 1×10^5 cells/well with 0.5 ml of E-MEM including 1% fetal bovine serum and were cultured for 1 day. The mediums in 24-well plates in which WI-38 cells were cultured were removed by aspiration and Hanks-bovine serum albumin buffer [Hanks-BSA Buffer: Hanks' balanced salts (4.9 g), sodium bicarbonate (0.1 g) and bovine serum albumin (protease free) (0.5 g)] was added thereto. […] Supernatant was collected, and PGE2 level included therein was measured by PGE2 EIA Kit (Cayman Chemical Co.).

| IC50 (Bradykinin receptor) [nM] | SMILES | fold induction at 1 µM (WI-38 PGE2 production) |
| --- | --- | --- |
| 6.3 | COc1nc2c(OCc3c(Cl)ccc(N(C)C(=O)CNC(=O)/C=C/c4ccc(NC(C)=O)nc4)c3Cl)cccc2n1Cc1ccccn1 [Example 9, 4-[3-[N-[(E)-3-(6-acetamidopyridin-3-yl)acryloylglycyl]-N-methylamino]-2,6-dichlorobenzyloxy]-2-methoxy-1-(2-pyridylmethyl)-1H-benzimidazole] | 10.8 |
| 0.99 | CNC(=O)c1ccc(C=CC(=O)NCC(=O)N(C)c2ccc(Cl)c(COc3cccc4c(OCc5ccccn5)cc(C)nc34)c2Cl)cc1 [Example 1-(2), 8-[2,6-dichloro-3-[N-[4-(methylcarbamoyl)cinnamoylglycyl]-N-methylamino]benzyloxy]-2-methyl-4-(2-pyridylmethoxy)quinoline] | 7.95 |
